In PMC9090415, “Discovery of small molecule inhibitors of Plasmodium falciparum apicoplast DNA polymerase” (Journal of Enzyme Inhibition and Medicinal Chemistry, 2022):

Biological target: P. falciparum apicoplast DNA polymerase (Pf-apPOL) (Plasmodium falciparum, UniProt Q8ILY1)
Experiment: Fluorescence-based high-throughput DNA polymerase assay (molecular beacon), primary screen and dose-response;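 for % inhibition ApPOL 90': test concentration in µM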;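 for % inhibition apPOL 180': test concentration in µM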
Format: biochemical
Conditions: for IC50: supplemental file 2, sheet IC50 nontoxic compounds, Pf-apPOL; for DNA Pol: 90 min, 10 µM
How it was run: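 Single-point screening used 10 µM compound with 20 nM polymerase, 20 nM hairpin substrate and 6 µM dNTPs for 90 min at 25 °C. Confirmatory titrations (2.5–80 µM) followed fluorescence at three times, and IC50 was derived from a fit including a cooperativity term n.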

[1] = 'DNA Pol', screening value, unit not given
[2] = conc 2.5 (unit not given), 40', DRC-2
[3] = conc 5 (unit not given), 40', DRC-2
[4] = primary screen hit value, DNA Pol (186 hits)

P. falciparum apicoplast DNA polymerase (Pf-apPOL), sequence (Q8ILY1 entry or part of it): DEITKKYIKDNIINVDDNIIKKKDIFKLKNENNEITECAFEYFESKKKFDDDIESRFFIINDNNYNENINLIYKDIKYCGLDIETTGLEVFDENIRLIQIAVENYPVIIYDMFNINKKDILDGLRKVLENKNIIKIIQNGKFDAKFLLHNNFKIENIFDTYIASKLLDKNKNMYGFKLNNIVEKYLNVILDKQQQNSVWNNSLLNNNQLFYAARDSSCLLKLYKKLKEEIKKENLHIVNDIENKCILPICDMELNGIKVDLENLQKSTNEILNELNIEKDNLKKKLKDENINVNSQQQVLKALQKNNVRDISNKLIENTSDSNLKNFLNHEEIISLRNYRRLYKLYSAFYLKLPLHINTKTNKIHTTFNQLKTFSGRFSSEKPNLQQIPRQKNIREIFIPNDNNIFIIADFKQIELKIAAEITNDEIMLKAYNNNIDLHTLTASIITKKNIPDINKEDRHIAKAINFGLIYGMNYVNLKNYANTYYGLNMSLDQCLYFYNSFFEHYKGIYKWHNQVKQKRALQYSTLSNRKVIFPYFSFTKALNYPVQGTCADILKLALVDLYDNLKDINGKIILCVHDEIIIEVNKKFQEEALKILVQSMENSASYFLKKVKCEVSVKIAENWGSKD

O=C(NNC(=O)C(F)(F)Sc1ccccc1)c1ccsc1 [Molecule 68]
IC50: 21 µM

O=C(O)CC1SC(c2ccc3c(c2)OCO3)=NC1=O (stereo not shown) [Molecule 69, OC(=O)CC1SC(=NC1=O)c1ccc2c(c1)OCO2]
DNA Pol [1]: 73
% inhibition Apo pol 10' (DRC-1, concentration 2.5): 9.093%
% inhibition Apo pol 10' (DRC-1, concentration 5): 10.6697%
% inhibition Apo pol 10' (DRC-1, concentration 10): 24.5481%
% inhibition Apo pol 10' (DRC-1, concentration 20): 37.0336%
% inhibition Apo pol 10' (DRC-1, concentration 40): 59.8933%
% inhibition Apo pol 10' (DRC-1, concentration 80): 73.2432%
% inhibition Apol 90' (DRC-1, 90', concentration 2.5): 0.8612%
% inhibition Apol 90' (DRC-1, 90', concentration 5): 2.259%
% inhibition Apol 90' (DRC-1, 90', concentration 10): 10.3106%
% inhibition Apol 90' (DRC-1, 90', concentration 20): 18.6533%
% inhibition Apol 90' (DRC-1, 90', concentration 40): 43.3337%
% inhibition Apol 90' (DRC-1, 90', concentration 80): 58.9692%
% inhibition apPOL 180' (DRC-1, 180', concentration 2.5): -4.62%
% inhibition apPOL 180' (DRC-1, 180', concentration 5): -4.006%
% inhibition apPOL 180' (DRC-1, 180', concentration 10): 2.363%
% inhibition apPOL 180' (DRC-1, 180', concentration 20): 9.6301%
% inhibition apPOL 180' (DRC-1, 180', concentration 40): 35.5256%
% inhibition apPOL 180' (DRC-1, 180', concentration 80): 52.4762%
% inhibition Apo pol 5' (DRC-2, 5', concentration 2.5): 14%
% inhibition Apo pol 5' (DRC-2, 5', concentration 5): 9%
% inhibition Apo pol 5' (DRC-2, 5', concentration 10): 20%
% inhibition Apo pol 5' (DRC-2, 5', concentration 20): 29%
% inhibition Apo pol 5' (DRC-2, 5', concentration 40): 41%
% inhibition Apo pol 5' (DRC-2, 5', concentration 80): 49%
% inhibition Apol 40' (DRC-2, 40', concentration 2.5): 9%
% inhibition Apol 40' (DRC-2, 40', concentration 5): 7%
% inhibition Apol 40' (DRC-2, 40', concentration 10): 16%
% inhibition Apol 40' (DRC-2, 40', concentration 20): 23%
% inhibition Apol 40' (DRC-2, 40', concentration 40): 37%
% inhibition Apol 40' (DRC-2, 40', concentration 80): 51%
% inhibition ApPOL 90' (DRC-2, 90', concentration 2.5): 5.65%
% inhibition ApPOL 90' (DRC-2, 90', concentration 5): 4%
% inhibition ApPOL 90' (DRC-2, 90', concentration 10): 10%
% inhibition ApPOL 90' (DRC-2, 90', concentration 20): 16%
% inhibition ApPOL 90' (DRC-2, 90', concentration 40): 33%
% inhibition ApPOL 90' (DRC-2, 90', concentration 80): 50%
% inhibition apPOL 180' (DRC-2, 180', concentration 2.5): -0.895%
% inhibition apPOL 180' (DRC-2, 180', concentration 5): -1.56%
% inhibition apPOL 180' (DRC-2, 180', concentration 10): 3%
% inhibition apPOL 180' (DRC-2, 180', concentration 20): 7%
% inhibition apPOL 180' (DRC-2, 180', concentration 40): 23%
% inhibition apPOL 180' (DRC-2, 180', concentration 80): 43%
% inhibition Apol 40' [2]: 9%
% inhibition Apo pol 5' (conc 5 (unit not given), 5', DRC-2): 9%
% inhibition Apol 40' [3]: 7%
% inhibition Apol 40' (conc 10 (unit not given), 40', DRC-2): 16%
% inhibition Apol 40' (conc 20 (unit not given), 40', DRC-2): 23%
% inhibition ApPOL 90' (conc 20 (unit not given), 90', DRC-2): 16%
% inhibition apPOL 180' (conc 20 (unit not given), 180', DRC-2): 7%
% inhibition apPOL 180' (conc 40 (unit not given), 180', DRC-2): 23%
DNA Pol [4]: 73

O=C(O)CC1SC(c2ccc3c(c2)OCO3)=NC1=O (stereo not shown) [Molecule 69]
IC50: 29.2 µM

Cc1ccsc1Cn1c(C)ccc1C [Molecule 70]
IC50: 31.6 µM

CSC(C)C(=O)C=CN(C)C (stereo not shown) [Molecule 71, CSC(C(=O)C=CN(C)C)C]
DNA Pol [1]: 74
% inhibition Apo pol 10' (DRC-1, concentration 2.5): 3.1346%
% inhibition Apo pol 10' (DRC-1, concentration 5): 9.272%
% inhibition Apo pol 10' (DRC-1, concentration 10): 23.0547%
% inhibition Apo pol 10' (DRC-1, concentration 20): 40.6618%
% inhibition Apo pol 10' (DRC-1, concentration 40): 61.0031%
% inhibition Apo pol 10' (DRC-1, concentration 80): 73.8561%
% inhibition Apol 90' (DRC-1, 90', concentration 2.5): -5.565%
% inhibition Apol 90' (DRC-1, 90', concentration 5): -2.761%
% inhibition Apol 90' (DRC-1, 90', concentration 10): 6.496%
% inhibition Apol 90' (DRC-1, 90', concentration 20): 18.7859%
% inhibition Apol 90' (DRC-1, 90', concentration 40): 40.8686%
% inhibition Apol 90' (DRC-1, 90', concentration 80): 61.3008%
% inhibition apPOL 180' (DRC-1, 180', concentration 2.5): -9.552%
% inhibition apPOL 180' (DRC-1, 180', concentration 5): -9.951%
% inhibition apPOL 180' (DRC-1, 180', concentration 10): -3.723%
% inhibition apPOL 180' (DRC-1, 180', concentration 20): 5.025%
% inhibition apPOL 180' (DRC-1, 180', concentration 40): 23.5627%
% inhibition apPOL 180' (DRC-1, 180', concentration 80): 48.8803%
% inhibition Apo pol 5' (DRC-2, 5', concentration 2.5): 11%
% inhibition Apo pol 5' (DRC-2, 5', concentration 5): 14%
% inhibition Apo pol 5' (DRC-2, 5', concentration 10): 26%
% inhibition Apo pol 5' (DRC-2, 5', concentration 20): 41%
% inhibition Apo pol 5' (DRC-2, 5', concentration 40): 46%
% inhibition Apo pol 5' (DRC-2, 5', concentration 80): 48%
% inhibition Apol 40' (DRC-2, 40', concentration 2.5): 11%
% inhibition Apol 40' (DRC-2, 40', concentration 5): 11%
% inhibition Apol 40' (DRC-2, 40', concentration 10): 21%
% inhibition Apol 40' (DRC-2, 40', concentration 20): 42%
% inhibition Apol 40' (DRC-2, 40', concentration 40): 50%
% inhibition Apol 40' (DRC-2, 40', concentration 80): 62%
% inhibition ApPOL 90' (DRC-2, 90', concentration 2.5): 9%
% inhibition ApPOL 90' (DRC-2, 90', concentration 5): 6%
% inhibition ApPOL 90' (DRC-2, 90', concentration 10): 15%
% inhibition ApPOL 90' (DRC-2, 90', concentration 20): 39%
% inhibition ApPOL 90' (DRC-2, 90', concentration 40): 47%
% inhibition ApPOL 90' (DRC-2, 90', concentration 80): 64%
% inhibition apPOL 180' (DRC-2, 180', concentration 2.5): 4%
% inhibition apPOL 180' (DRC-2, 180', concentration 5): 0.715%
% inhibition apPOL 180' (DRC-2, 180', concentration 10): 5.41%
% inhibition apPOL 180' (DRC-2, 180', concentration 20): 31%
% inhibition apPOL 180' (DRC-2, 180', concentration 40): 37%
% inhibition apPOL 180' (DRC-2, 180', concentration 80): 65%
% inhibition Apo pol 5' (conc 2.5 (unit not given), 5', DRC-2): 11%
% inhibition Apol 40' [2]: 11%
% inhibition Apol 40' [3]: 11%
DNA Pol [4]: 74

CSC(C)C(=O)C=CN(C)C (stereo not shown) [Molecule 71]
IC50: 26.9 µM
